No end group written: not given here.
Columns and labels:
[1] = Anthopleura elegantissima toxins; ref [5],[38]; cited from earlier work
From the text: (§1) The inhibition of PhcrTx2 on glutamate-gated currents in snail neurons, and also on voltage-activated K^+ currents in DRG neurons, seems to be of about similar potency and slightly different in efficacy. PhcrTx2 also acted on voltage-dependent Na^+-channels of DRG neurons but with lower efficacy, in comparison with its effect on K^+ channels. […] These facts resemble previous re ...

[2] = test system: glutamate-gated currents in snail neurons; test: Glutamate-gated currents in isolated snail neurons (whole-cell patch clamp); assay type: cell-based, Helix aspersa; conditions: glutamate 1 mM
Description: The effects of PhcrTx2 were studied in isolated mammalian and snail neurons using the whole cell patch-clamp technique. Animal care and procedures were in accordance with the National Institutes of Health Guide for the Care and Use of Laboratory Animals. All efforts were made to minimize animal suffering. The number of animals used for this work was kept to the minimum necessary for a meaningful interpretation of the data.
Experiments to study glutamate-activated currents were performed in isolated neurons of the land snail Helix aspersa. The subesophageal mass of the snail was dissected, and put into the Ringer solution for snails (Supplementary Table S4) containing trypsin (2 mg/mL for 30 min, at 37 °C). After enzymatic treatment, the preparation was washed with normal solution for snails, and the neurons were mechanically dissociated, plated on glass coverslips (Corning) pretreated with poly-D-lysine (Sigma-Aldrich), and placed onto 35-mm culture dishes (Corning). Neurons were maintained at room temperature (23–25 °C) for at least 30 min before using, in order to allow the isolated cells to adhere to the coverslips. The whole-cell recording was carried out using the same experimental conditions that were described in Section 5.2.2.
Glutamate currents were elicited by a fast glutamate application (about 40 ms) by shifting one of the three outlets of a fast change perfusion system (SF-77B, Warner Inst., Hamden, CT, USA) while keeping the cell at a holding potential (Vh) of −100 mV. The interval between glutamate applications was one minute, to guarantee that the current completely recovered from desensitization. The pH of glutamate solution was checked before each experiment to avoid the potential activation of proton-gated currents. At the beginning of this study, experiments were designed to compare the effect of the toxin using two application protocols.
The solutions used in the experiments are depicted in Supplementary Table S4. The concentration-response curves were fitted to the Hill equation following the procedure described in Section 5.2.2.

[3] = test system: crabs; conditions: Antheopsis maculata toxin; ref [21]; cited from earlier work
From the text: Many of these peptides have been classified as voltage-gated sodium channel toxins, whereas few other crab-paralyzing peptides act on different targets, such as voltage-gated potassium channels. On the other hand, other paralyzing toxins seem to belong to new classes of toxins. In this work, we found a diversity of paralyzing toxins from the sea anemone P. crucifer by using a crab toxicity assay for biological activity screening during the purification process. Sixteen chromatographic fractions sh ... || (+ 1 further places)

[4] = test system: ASIC3; conditions: ref [38], cited from earlier work
From the text: as §1

[5] = test system: heteromeric channels that contain the ASIC3 subunit; conditions: except the ASIC2a + 3 current; ref [38]; cited from earlier work
From the text: as §1

[6] = test system: Kv3.4 channels; conditions: ref [38],[58]; cited from earlier work
From the text: as §1

[7] = test system: insect and mammalian Nav channels; conditions: ref [38],[58]; cited from earlier work
From the text: as §1

## APETx1: toxin from Anthopleura elegantissima (UniProtKB P61541) (GTTCYCGKTIGIYWFGTKTCPSNRGYTGSCGYFLGICCYPVD; UniProt P61541 1-42, looked up)
[1]
  target selectivity: lack of target selectivity

## N[C@@H](CCC(=O)O)C(=O)O [glutamate]
[2]; 80 mV, n = 5
  glutamate-evoked current at positive potential: 0.3 ± 0.1 nA
[2]; holding potential −100 mV, n = 5, average
  glutamate-evoked current: about 2.6 ± 1.4 nA
[2]; average, "close to"
  reversal potential of glutamate-evoked current: ~0 mV

## Am II: crab-paralyzing toxin from Antheopsis maculata (UniProtKB P69930) (ALLSCRCEGKTEYGDKWLFHGGCPNNYGYNYKCFMKPGAVCCYPQN; ends and bridges not checked; cysteine pairing not given here; UniProt P69930 33-78, looked up)
[3]
  crab-paralyzing activity: crab-paralyzing toxin

## APETx2: toxin from Anthopleura elegantissima, ASIC3 blocker (UniProtKB P61542) (GTACSCGNSKGIYWFYRPSCPTDRGYTGSCRYFLGTCCTPAD; UniProt P61542 1-42, looked up)
[4]; reversible blocker, read-out: IC50, peak component of the ASIC3 current
  IC50: 63 nM
[4]; sustained component
  effect on the sustained component of ASIC3 current: no effect
[1]
  target selectivity: lack of target selectivity
[5]
  effect on heteromeric channels containing ASIC3: affects heteromeric channels that contain the ASIC3 subunit, except the ASIC2a + 3 current
[6]
  inhibition of Kv3.4 channels: partially inhibits Kv3.4 channels
[7]
  effect on Nav channels: inhibiting the sodium conductance without affecting the inactivation and shifting activation to a depolarizing direction

Reference: publication PMC5848173, “PhcrTx2, a New Crab-Paralyzing Peptide Toxin from the Sea Anemone Phymanthus crucifer” (Toxins, 2018)
